Measured values reported in PubChem BioAssay (NCI).
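Five concentrations, 48 hours, 96-well plates. TGI: concentration producing complete growth inhibition.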

How the values were obtained:
Test in all cases: DTP human tumour cell line panel, 48 h
M14 melanoma = system: M14 melanoma
NCI-H522 lung = system: NCI-H522 lung
NCI-H460 lung = system: NCI-H460 lung
COLO 205 colon = system: COLO 205 colon
M19-MEL melanoma = system: M19-MEL melanoma
OVCAR-8 ovarian = system: OVCAR-8 ovarian
786-0 renal = system: 786-0 renal
UO-31 renal = system: UO-31 renal
DMS 114 small cell lung = system: DMS 114 small cell lung

Structure (SMILES) | TGI (M14 melanoma) [µM] | TGI (NCI-H522 lung) [µM] | TGI (NCI-H460 lung) [µM] | TGI (COLO 205 colon) [µM] | TGI (M19-MEL melanoma) [µM] | TGI (OVCAR-8 ovarian) [µM] | TGI (786-0 renal) [µM] | TGI (UO-31 renal) [µM] | TGI (DMS 114 small cell lung) [µM]
CC(C)COC(=O)N1N=NC2C3OC(CC3=O)C21 (stereo not drawn) | > 100 | > 100 | > 100 | > 100 | > 100 | > 100 | > 100 | > 100 | > 100
C=CCC12CCC(=O)C=C1CCC1(C2)OCCO1 (stereo not drawn) | > 100 | > 100 | > 100 | > 100 | > 100 | > 100 | > 100 | > 100 | > 100
CC1=C(C)CC2(SC1)C(=O)c1ccccc1C2=O | > 100 | > 100 | > 100 | > 100 | > 100 | > 100 | > 100 | > 100 | > 100
O=c1[nH]c(=O)n(C2CC(O)C(CO)O2)cc1C(OCC(F)(F)F)OCC(F)(F)F (stereo not drawn) | > 100 | > 100 | > 100 | > 100 | > 100 | > 100 | > 100 | > 100 | > 100
CC(=O)NC1=C(C)C(=O)c2c(nc3n2CCC3O)C1=O (stereo not drawn) | > 100 | 68.2 | > 100 | > 100 | > 57.1 | 68.1 | > 100 | > 100 | 21
OCCN(CCO)c1cccc(N(CCO)CCO)c1 | > 100 | > 100 | > 100 | > 100 | > 100 | > 100 | > 100 | 92.2 | > 100
Cc1cc2c(cc1C)[n+](=O)c(C(=O)/C=C/c1ccc(Cl)cc1)c(C)n2[O-] | 54.1 | 50.4 | 62.7 | 41.1 | > 100 | 84.2 | 34.4 | 39.6 | 94.4
CN(C)c1ccc(/C=C/C(=O)C(C)(C)C)cc1Br | 43.2 | 31.9 | > 100 | 67.2 | 50.9 | 54.1 | 59 | > 100 | 40.1
Cc1ccc(C(=O)O/N=C2/CCCCC2CN(C)C)cc1 (stereo not drawn) | > 100 | > 100 | > 100 | > 100 | > 100 | > 100 | > 100 | > 100 | > 100
COc1cccc2c1C1(O)C2CCCC12OCCCO2 (stereo not drawn) | > 100 | > 100 | > 100 | > 100 | > 100 | > 100 | > 100 | > 100 | > 100
CCNc1c(C(=O)N(CC)CC)c(=O)[nH]c2ncccc12 | > 100 | > 100 | > 100 | > 100 | > 100 | > 100 | > 100 | > 100 | > 100
CCNC(=O)/C=C/CCC#Cc1ccc(-c2ccc(-c3cccs3)s2)s1 | > 100 | > 100 | > 100 | 3.19 | > 100 | > 100 | > 100 | > 100 | > 100
